Data taken from article PMC11480411, “Mucosal sugars delineate pyrazine vs pyrazinone autoinducer signaling in Klebsiella oxytoca” (Nature Communications, 2024).

How the values were obtained:
Experiment in all cases: PRESTO-Tango GPCR screen
Assay type in all cases: cell-based
Details in all cases: 100 µM
TAAR8 = target: T1, TAAR8 (Homo sapiens, UniProt Q969N4)
T1 construct: purchased PRESTO-Tango GPCR kit (Roth lab / Addgene)
Procedure: (§1) The PRESTO-Tango analyses were performed as previously published. Briefly, HTLA cells, a HEK293 cell line that stably expresses β-arrestin-TEV and tTA-Luciferase (a kind gift from Gilad Barnea, Brown University), were plated in 96-well tissue culture plates (Eppendorf) in DMEM containing 10% FBS and 1% Penicillin/Streptomycin. One day after plating (after reaching approximately 90% confluence), 200 ng per well GPCR-Tango plasmids[37] in 20 μL DMEM were individually mixed with 400 ng polyethylenimine (Polysciences) in an equal volume of DMEM and incubated for 20 min at room temperature before adding the transfection mixture to the HTLA cells. 16-24 h after transfection, medium was replaced with 180 μL fresh DMEM containing 1% Penicillin/Streptomycin and 10 mM HEPES and 20 μL of 3 or 3-Homo to reach a final concentration of 100 μM. Supernatants were aspirated 20 h after stimulation and 50 μl per well of Bright-Glo solution (Promega) diluted 20-fold with PBS containing 20 mM HEPES was added into each well. After 15 min incubation at room temperature, luminescence was quantified using a Spectramax i3x microplate reader (Molecular Devices). Activation fold for each sample was calculated by dividing relative luminescence units (RLU) for each condition by RLUs from PBS control. Dose response curves of each chemical were performed in a similar way with varying the ligand concentration from 10^−4 M to 10^−15 M.

GPR123 = target: T2, GPR123 (Homo sapiens, UniProt Q86SQ6)
T2 construct: purchased PRESTO-Tango GPCR kit (Roth lab / Addgene)
T2 sequence (Q86SQ6 whole entry): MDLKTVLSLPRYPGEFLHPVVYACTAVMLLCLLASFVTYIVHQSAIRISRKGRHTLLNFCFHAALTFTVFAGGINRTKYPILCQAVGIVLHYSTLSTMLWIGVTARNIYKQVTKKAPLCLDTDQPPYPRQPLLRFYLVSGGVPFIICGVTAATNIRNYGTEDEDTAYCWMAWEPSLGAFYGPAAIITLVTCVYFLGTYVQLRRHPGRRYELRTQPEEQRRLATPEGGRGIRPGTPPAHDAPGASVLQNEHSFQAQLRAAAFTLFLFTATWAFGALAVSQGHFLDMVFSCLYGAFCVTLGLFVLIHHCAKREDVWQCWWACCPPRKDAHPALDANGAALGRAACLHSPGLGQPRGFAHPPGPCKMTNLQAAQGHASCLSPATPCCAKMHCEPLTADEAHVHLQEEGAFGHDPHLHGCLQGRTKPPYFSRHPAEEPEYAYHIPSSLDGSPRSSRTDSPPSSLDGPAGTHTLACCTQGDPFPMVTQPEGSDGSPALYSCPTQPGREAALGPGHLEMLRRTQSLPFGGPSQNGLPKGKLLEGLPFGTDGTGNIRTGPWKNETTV
Procedure: as §1

GPR22 = target: T3, GPR22 (Homo sapiens, UniProt Q99680)
T3 construct: purchased PRESTO-Tango GPCR kit (Roth lab / Addgene)
T3 sequence (Q99680 whole entry): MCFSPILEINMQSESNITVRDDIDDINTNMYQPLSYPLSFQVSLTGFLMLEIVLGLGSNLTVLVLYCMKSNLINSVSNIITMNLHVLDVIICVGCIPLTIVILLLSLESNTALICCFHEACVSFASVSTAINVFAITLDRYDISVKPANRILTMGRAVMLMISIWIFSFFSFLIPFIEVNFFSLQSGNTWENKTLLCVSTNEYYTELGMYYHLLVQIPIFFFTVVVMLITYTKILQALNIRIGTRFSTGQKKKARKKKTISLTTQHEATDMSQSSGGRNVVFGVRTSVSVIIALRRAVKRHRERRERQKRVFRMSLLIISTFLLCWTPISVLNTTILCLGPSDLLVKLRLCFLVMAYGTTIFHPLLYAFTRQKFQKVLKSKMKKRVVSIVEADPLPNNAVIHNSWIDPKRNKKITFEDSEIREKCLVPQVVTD
Procedure: as §1

MC4R = target: T4, MC4R (Homo sapiens, UniProt P32245)
T4 construct: purchased PRESTO-Tango GPCR kit (Roth lab / Addgene)
T4 sequence (P32245 whole entry): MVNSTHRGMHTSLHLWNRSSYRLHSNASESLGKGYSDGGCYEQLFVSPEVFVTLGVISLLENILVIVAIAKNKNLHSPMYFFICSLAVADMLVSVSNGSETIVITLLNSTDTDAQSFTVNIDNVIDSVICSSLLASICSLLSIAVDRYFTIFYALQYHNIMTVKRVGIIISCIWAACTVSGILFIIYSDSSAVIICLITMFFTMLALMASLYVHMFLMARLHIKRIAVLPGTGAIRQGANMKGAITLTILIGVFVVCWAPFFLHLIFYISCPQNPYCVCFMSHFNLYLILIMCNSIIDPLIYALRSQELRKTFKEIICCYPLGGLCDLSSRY
Procedure: as §1

MRGPRE = target: T5, MRGPRE (Homo sapiens, UniProt Q86SM8)
T5 construct: purchased PRESTO-Tango GPCR kit (Roth lab / Addgene)
T5 sequence (Q86SM8 whole entry): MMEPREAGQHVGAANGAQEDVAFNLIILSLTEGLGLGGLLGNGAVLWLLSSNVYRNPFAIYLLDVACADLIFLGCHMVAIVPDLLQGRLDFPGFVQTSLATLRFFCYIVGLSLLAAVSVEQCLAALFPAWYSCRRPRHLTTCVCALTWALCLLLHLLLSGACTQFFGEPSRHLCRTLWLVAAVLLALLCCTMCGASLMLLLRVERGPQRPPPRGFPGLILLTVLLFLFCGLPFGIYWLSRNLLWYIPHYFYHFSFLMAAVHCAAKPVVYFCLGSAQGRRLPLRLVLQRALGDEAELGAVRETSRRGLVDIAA
Procedure: as §1

DRD5 = target: T6, DRD5 (Homo sapiens, UniProt P21918)
T6 construct: purchased PRESTO-Tango GPCR kit (Roth lab / Addgene)
Procedure: as §1

MRGPRX1 = target: T7, MRGPRX1 (Homo sapiens, UniProt Q96LB2)
T7 construct: purchased PRESTO-Tango GPCR kit (Roth lab / Addgene)
Procedure: as §1

GPR1 = target: T8, GPR1 (Homo sapiens, UniProt P46091)
T8 construct: purchased PRESTO-Tango GPCR kit (Roth lab / Addgene)
T8 sequence (P46091 whole entry): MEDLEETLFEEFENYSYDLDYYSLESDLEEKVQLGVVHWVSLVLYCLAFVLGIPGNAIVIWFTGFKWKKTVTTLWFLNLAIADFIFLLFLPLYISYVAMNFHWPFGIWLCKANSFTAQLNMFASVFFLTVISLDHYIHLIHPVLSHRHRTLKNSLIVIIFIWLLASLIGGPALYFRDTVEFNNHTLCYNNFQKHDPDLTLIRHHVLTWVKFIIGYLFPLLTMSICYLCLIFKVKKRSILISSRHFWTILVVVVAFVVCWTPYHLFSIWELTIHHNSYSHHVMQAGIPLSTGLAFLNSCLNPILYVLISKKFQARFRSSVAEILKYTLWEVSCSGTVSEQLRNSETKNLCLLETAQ
Procedure: as §1

VIPR2 = target: T9, VIPR2 (Homo sapiens, UniProt P41587)
T9 construct: purchased PRESTO-Tango GPCR kit (Roth lab / Addgene)
T9 sequence (P41587 24-438): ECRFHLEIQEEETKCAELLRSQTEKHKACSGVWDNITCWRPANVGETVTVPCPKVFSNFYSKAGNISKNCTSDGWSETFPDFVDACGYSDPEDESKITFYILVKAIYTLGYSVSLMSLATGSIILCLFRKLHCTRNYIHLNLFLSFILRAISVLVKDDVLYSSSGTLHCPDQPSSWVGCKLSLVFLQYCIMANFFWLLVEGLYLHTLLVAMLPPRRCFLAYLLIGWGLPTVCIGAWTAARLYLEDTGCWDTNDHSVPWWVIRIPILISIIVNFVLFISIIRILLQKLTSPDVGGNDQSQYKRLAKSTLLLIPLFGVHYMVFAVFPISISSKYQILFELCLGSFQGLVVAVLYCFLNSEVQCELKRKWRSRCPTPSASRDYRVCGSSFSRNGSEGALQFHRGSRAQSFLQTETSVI
Procedure: as §1

LTB4R2B = target: T10, LTB4R2B (Homo sapiens, UniProt Q9NPC1)
T10 construct: purchased PRESTO-Tango GPCR kit (Roth lab / Addgene)
Procedure: as §1

ELTD1 = target: T11, ELTD1 (Homo sapiens, UniProt Q9HBW9)
T11 construct: purchased PRESTO-Tango GPCR kit (Roth lab / Addgene)
Procedure: as §1

P2RY2 = target: T12, P2RY2 (Homo sapiens, UniProt P41231)
T12 construct: purchased PRESTO-Tango GPCR kit (Roth lab / Addgene)
T12 sequence (P41231 whole entry): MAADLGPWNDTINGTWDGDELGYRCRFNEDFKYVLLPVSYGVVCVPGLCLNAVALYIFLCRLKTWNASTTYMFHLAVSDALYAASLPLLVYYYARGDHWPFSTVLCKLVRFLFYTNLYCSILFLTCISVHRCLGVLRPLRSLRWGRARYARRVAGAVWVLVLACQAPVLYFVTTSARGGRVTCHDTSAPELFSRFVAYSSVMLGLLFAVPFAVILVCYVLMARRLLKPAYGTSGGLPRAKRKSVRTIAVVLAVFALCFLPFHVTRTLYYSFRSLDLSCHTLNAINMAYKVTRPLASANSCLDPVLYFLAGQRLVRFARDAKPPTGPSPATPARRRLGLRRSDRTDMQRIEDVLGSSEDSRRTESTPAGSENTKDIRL
Procedure: as §1

FPR2 = target: T13, FPR2 (Homo sapiens, UniProt P25090)
T13 construct: purchased PRESTO-Tango GPCR kit (Roth lab / Addgene)
T13 sequence (P25090 whole entry): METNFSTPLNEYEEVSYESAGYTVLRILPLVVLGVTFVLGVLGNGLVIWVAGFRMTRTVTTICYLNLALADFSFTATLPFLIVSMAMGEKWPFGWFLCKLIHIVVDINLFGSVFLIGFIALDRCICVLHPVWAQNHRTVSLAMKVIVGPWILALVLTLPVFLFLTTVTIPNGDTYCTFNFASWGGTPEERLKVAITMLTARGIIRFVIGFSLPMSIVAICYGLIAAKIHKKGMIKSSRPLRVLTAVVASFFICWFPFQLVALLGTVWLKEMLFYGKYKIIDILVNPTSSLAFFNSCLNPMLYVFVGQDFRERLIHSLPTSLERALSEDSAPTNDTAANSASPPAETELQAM
Procedure: as §1

GPRC5A = target: T14, GPRC5A (Homo sapiens, UniProt Q8NFJ5)
T14 construct: purchased PRESTO-Tango GPCR kit (Roth lab / Addgene)
T14 sequence (Q8NFJ5 whole entry): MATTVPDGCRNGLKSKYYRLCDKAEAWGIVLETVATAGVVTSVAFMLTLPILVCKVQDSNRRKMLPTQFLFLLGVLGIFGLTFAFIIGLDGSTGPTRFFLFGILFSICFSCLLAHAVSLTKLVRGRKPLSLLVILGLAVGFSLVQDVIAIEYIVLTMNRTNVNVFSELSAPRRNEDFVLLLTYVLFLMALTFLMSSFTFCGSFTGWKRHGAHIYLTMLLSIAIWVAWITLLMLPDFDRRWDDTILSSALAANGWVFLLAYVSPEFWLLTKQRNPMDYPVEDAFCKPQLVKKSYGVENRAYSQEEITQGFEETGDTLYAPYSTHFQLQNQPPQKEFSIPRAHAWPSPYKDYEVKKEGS
Procedure: as §1

GPR120 = target: T15, GPR120 (Homo sapiens, UniProt Q5NUL3)
T15 construct: purchased PRESTO-Tango GPCR kit (Roth lab / Addgene)
Procedure: as §1

FPR1 = target: T16, FPR1 (Homo sapiens, UniProt P21462)
T16 construct: purchased PRESTO-Tango GPCR kit (Roth lab / Addgene)
T16 sequence (P21462 whole entry): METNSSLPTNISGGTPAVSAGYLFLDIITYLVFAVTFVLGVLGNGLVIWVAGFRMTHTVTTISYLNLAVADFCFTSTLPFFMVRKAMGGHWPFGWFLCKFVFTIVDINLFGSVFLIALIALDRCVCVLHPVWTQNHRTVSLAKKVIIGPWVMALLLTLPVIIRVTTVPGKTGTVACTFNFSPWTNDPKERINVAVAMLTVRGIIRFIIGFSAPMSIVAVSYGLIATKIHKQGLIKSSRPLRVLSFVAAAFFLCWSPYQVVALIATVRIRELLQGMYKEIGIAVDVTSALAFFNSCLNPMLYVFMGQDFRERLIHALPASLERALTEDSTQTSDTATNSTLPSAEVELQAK
Procedure: as §1

KISSPEPTIN-R = target: T17, KISSPEPTIN-R (Homo sapiens, UniProt Q969F8)
T17 construct: purchased PRESTO-Tango GPCR kit (Roth lab / Addgene)
T17 sequence (Q969F8 whole entry): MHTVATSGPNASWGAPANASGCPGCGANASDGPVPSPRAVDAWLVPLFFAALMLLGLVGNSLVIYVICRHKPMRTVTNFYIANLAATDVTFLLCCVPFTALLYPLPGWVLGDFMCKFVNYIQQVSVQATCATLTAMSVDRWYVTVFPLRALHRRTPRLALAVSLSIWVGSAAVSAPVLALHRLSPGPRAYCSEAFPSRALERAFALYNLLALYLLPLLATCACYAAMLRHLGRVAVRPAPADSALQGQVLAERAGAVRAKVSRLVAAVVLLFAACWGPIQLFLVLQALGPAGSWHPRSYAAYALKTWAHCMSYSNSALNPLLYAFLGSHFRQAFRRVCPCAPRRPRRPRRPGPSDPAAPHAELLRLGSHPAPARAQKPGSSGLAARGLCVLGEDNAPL
Procedure: as §1

HTR2C = target: T18, HTR2C (Homo sapiens, UniProt P28335)
T18 construct: purchased PRESTO-Tango GPCR kit (Roth lab / Addgene)
Procedure: as §1

CYSLTR1 = target: T19, CYSLTR1 (Homo sapiens, UniProt Q9Y271)
T19 construct: purchased PRESTO-Tango GPCR kit (Roth lab / Addgene)
Procedure: as §1

GPR34 = target: T20, GPR34 (Homo sapiens, UniProt Q9UPC5)
T20 construct: purchased PRESTO-Tango GPCR kit (Roth lab / Addgene)
Procedure: as §1

P2RY1 = target: T21, P2RY1 (Homo sapiens, UniProt P47900)
T21 construct: purchased PRESTO-Tango GPCR kit (Roth lab / Addgene)
Procedure: as §1

GRM5 = target: T22, GRM5 (Homo sapiens, UniProt P41594)
T22 construct: purchased PRESTO-Tango GPCR kit (Roth lab / Addgene)
Procedure: as §1

GPR160 = target: T23, GPR160 (Homo sapiens, UniProt Q9UJ42)
T23 construct: purchased PRESTO-Tango GPCR kit (Roth lab / Addgene)
Procedure: as §1

OXTR = target: T24, OXTR (Homo sapiens, UniProt P30559)
T24 construct: purchased PRESTO-Tango GPCR kit (Roth lab / Addgene)
Procedure: as §1

GPR158 = target: T25, GPR158 (Homo sapiens, UniProt Q5T848)
T25 construct: purchased PRESTO-Tango GPCR kit (Roth lab / Addgene)
Procedure: as §1

GAL1 = target: T26, GAL1 (Homo sapiens, UniProt P47211)
T26 construct: purchased PRESTO-Tango GPCR kit (Roth lab / Addgene)
Procedure: as §1

LPAR5 = target: T27, LPAR5 (Homo sapiens, UniProt Q9H1C0)
T27 construct: purchased PRESTO-Tango GPCR kit (Roth lab / Addgene)
Procedure: as §1

F2RL1 = target: T28, F2RL1 (Homo sapiens, UniProt P55085)
T28 construct: purchased PRESTO-Tango GPCR kit (Roth lab / Addgene)
Procedure: as §1

ADRA2A = target: T29, ADRA2A (Homo sapiens, UniProt P08913)
T29 construct: purchased PRESTO-Tango GPCR kit (Roth lab / Addgene)
Procedure: as §1

ADORA1 = target: T30, ADORA1 (Homo sapiens, UniProt P30542)
T30 construct: purchased PRESTO-Tango GPCR kit (Roth lab / Addgene)
Procedure: as §1

GPR44 = target: T31, GPR44 (Homo sapiens, UniProt Q9Y5Y4)
T31 construct: purchased PRESTO-Tango GPCR kit (Roth lab / Addgene)
Procedure: as §1

GPER = target: T32, GPER (Homo sapiens, UniProt Q99527)
T32 construct: purchased PRESTO-Tango GPCR kit (Roth lab / Addgene)
T32 sequence (Q99527 whole entry): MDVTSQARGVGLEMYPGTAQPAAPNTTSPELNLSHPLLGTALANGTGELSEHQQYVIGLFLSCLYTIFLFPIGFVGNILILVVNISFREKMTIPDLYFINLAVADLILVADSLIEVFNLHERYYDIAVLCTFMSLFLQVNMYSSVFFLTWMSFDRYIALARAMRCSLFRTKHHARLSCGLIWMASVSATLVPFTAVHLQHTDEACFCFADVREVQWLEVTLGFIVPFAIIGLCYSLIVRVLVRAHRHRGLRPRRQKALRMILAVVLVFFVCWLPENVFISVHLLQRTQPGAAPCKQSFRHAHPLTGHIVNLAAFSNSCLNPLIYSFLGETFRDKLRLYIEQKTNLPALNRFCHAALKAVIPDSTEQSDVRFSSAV
Procedure: as §1

GPR141 = target: T33, GPR141 (Homo sapiens, UniProt Q7Z602)
T33 construct: purchased PRESTO-Tango GPCR kit (Roth lab / Addgene)
T33 sequence (Q7Z602 whole entry): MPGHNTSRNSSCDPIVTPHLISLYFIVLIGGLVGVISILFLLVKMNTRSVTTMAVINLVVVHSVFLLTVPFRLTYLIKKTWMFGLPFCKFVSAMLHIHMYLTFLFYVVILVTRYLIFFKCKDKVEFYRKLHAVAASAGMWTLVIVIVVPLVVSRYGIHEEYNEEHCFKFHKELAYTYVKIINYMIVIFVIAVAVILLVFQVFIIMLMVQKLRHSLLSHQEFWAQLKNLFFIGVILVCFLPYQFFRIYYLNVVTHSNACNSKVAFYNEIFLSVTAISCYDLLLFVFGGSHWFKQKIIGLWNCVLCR
Procedure: as §1

OPRK1 = target: T34, OPRK1 (Homo sapiens, UniProt P41145)
T34 construct: purchased PRESTO-Tango GPCR kit (Roth lab / Addgene)
Procedure: as §1

GPR97 = target: T35, GPR97 (Homo sapiens, UniProt Q86Y34)
T35 construct: purchased PRESTO-Tango GPCR kit (Roth lab / Addgene)
Procedure: as §1

Row | SMILES | GPCR activation (heatmap value) (TAAR8) | GPCR activation (heatmap value) (GPR123) | GPCR activation (heatmap value) (GPR22) | GPCR activation (heatmap value) (MC4R) | GPCR activation (heatmap value) (MRGPRE) | GPCR activation (heatmap value) (DRD5) | GPCR activation (heatmap value) (MRGPRX1) | GPCR activation (heatmap value) (GPR1) | GPCR activation (heatmap value) (VIPR2) | GPCR activation (heatmap value) (LTB4R2B) | GPCR activation (heatmap value) (ELTD1) | GPCR activation (heatmap value) (P2RY2) | GPCR activation (heatmap value) (FPR2) | GPCR activation (heatmap value) (GPRC5A) | GPCR activation (heatmap value) (GPR120) | GPCR activation (heatmap value) (FPR1) | GPCR activation (heatmap value) (KISSPEPTIN-R) | GPCR activation (heatmap value) (HTR2C) | GPCR activation (heatmap value) (CYSLTR1) | GPCR activation (heatmap value) (GPR34) | other results
1 | CC(C)Cc1ncc(CCCCNC(=N)N)[nH]c1=O [3-Homo] | -0.2862 | -0.1319 | -1.099 | -0.9791 | 0.8539 | -0.03134 | 0.1239 | 0.03802 | 0.5382 | 0.02731 | 0.08719 | -0.0487 | 0.05882 | 0.04883 | 0.1572 | -1.272 | 1.206 | 0.3471 | -0.2334 | -0.6255 | GPCR activation (heatmap value) (P2RY1): 0.7917; GPCR activation (heatmap value) (GRM5): -0.9141; GPCR activation (heatmap value) (GPR160): 0.53; GPCR activation (heatmap value) (OXTR): 0.4883; GPCR activation (heatmap value) (GPR158): -0.4311; GPCR activation (heatmap value) (GAL1): -0.2703; GPCR activation (heatmap value) (LPAR5): 0.1689; GPCR activation (heatmap value) (F2RL1): -0.2678; GPCR activation (heatmap value) (ADRA2A): -0.8336; GPCR activation (heatmap value) (ADORA1): 0.08121; GPCR activation (heatmap value) (GPR44): 0.02511; GPCR activation (heatmap value) (GPER): -0.07314; GPCR activation (heatmap value) (GPR141): 0.2402; GPCR activation (heatmap value) (OPRK1): -0.1244; GPCR activation (heatmap value) (GPR97): -0.2469
2 | CC(C)Cc1ncc(CCCNC(=N)N)[nH]c1=O [compound 3] | 0.314 | -0.4576 | -1.5748 | 0.1054 | 1.264 | 1.05 | -1.215 | -0.7172 | -0.5721 | -1.038 | 0.3234 | 0.0313 | 0.522 | -0.3148 | 0.8927 | 0.7196 | 0.3199 | 0.7228 | 0.3416 | 0.3024 | GPCR activation (heatmap value) (P2RY1): 0.6628; GPCR activation (heatmap value) (GRM5): 0.02679; GPCR activation (heatmap value) (GPR160): 0.6688; GPCR activation (heatmap value) (OXTR): 0.1075; GPCR activation (heatmap value) (GPR158): -0.2474; GPCR activation (heatmap value) (GAL1): -0.09983; GPCR activation (heatmap value) (LPAR5): 0.04943; GPCR activation (heatmap value) (F2RL1): 0.6997; GPCR activation (heatmap value) (ADRA2A): 0.08001; GPCR activation (heatmap value) (ADORA1): 0.2527; GPCR activation (heatmap value) (GPR44): 0.23; GPCR activation (heatmap value) (GPER): 0.1603; GPCR activation (heatmap value) (GPR141): -0.1192; GPCR activation (heatmap value) (OPRK1): 0.02999; GPCR activation (heatmap value) (GPR97): -0.1675
